In patent US20240024488A1, “COMPOUNDS AND USES THEREOF” (Foghorn Therapeutics Inc., priority 2020, published 2024):
pIC50: −log10 of the molar value.

Columns and labels:
HiBit-BRM fusion protein = biological target: T1, HiBit-BRM fusion protein (Homo sapiens, UniProt P51531); assay: HiBiT-BRM cell-based degradation assay (Nano-Glo HiBiT Lytic Detection, 24 h); conditions: HeLa cell line expressing HiBiT-BRM; for DC50: read-out: BRM HiBit Degradation IC50
T1 construct: expressed in transfected cells
T1 sequence (P51531 whole entry, the tested form may be a part): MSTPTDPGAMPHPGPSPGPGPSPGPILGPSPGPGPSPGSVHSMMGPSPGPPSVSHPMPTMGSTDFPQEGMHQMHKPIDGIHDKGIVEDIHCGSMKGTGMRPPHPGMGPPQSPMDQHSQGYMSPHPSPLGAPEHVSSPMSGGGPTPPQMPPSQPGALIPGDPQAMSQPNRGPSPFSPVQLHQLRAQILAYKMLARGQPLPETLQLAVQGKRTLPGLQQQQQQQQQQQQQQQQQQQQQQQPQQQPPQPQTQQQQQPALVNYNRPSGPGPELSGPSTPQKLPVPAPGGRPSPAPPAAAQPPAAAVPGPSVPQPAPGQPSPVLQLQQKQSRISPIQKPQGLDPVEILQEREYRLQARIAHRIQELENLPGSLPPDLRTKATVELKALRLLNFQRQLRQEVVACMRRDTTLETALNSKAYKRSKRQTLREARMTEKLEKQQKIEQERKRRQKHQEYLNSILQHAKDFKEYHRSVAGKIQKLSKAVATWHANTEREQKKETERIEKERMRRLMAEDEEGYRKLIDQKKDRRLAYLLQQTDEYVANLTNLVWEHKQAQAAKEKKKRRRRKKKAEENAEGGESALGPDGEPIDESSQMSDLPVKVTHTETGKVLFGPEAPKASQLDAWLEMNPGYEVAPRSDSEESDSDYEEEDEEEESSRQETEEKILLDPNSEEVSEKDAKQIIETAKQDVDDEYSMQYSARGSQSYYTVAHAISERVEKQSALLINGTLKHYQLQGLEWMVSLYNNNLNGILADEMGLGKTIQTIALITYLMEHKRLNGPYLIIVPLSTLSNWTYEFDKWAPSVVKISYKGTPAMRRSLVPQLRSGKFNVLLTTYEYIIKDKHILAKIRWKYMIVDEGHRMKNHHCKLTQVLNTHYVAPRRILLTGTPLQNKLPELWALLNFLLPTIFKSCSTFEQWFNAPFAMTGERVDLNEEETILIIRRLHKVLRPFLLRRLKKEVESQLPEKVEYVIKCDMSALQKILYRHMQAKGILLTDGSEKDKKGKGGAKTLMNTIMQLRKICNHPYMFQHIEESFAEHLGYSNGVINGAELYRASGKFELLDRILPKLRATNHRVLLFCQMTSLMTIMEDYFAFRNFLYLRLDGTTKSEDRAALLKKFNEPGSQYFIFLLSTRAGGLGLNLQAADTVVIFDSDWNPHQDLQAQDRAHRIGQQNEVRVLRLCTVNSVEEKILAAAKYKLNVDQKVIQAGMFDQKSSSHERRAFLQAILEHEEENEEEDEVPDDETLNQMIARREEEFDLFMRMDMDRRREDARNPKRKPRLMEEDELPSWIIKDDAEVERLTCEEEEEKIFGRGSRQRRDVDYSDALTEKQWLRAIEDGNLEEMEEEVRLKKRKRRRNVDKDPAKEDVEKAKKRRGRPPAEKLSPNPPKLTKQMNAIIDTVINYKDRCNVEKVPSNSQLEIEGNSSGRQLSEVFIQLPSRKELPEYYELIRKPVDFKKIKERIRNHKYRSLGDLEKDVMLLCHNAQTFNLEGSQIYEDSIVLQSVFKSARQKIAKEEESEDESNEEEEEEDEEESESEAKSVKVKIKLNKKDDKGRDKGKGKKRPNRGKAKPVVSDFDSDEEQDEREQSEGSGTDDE
Summary of the method: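 HeLa cells stably expressing HiBiT-BRM were treated for 24 h with compounds (10-point 3-fold dilutions, 30 μM final top dose, in duplicate). HiBiT was detected by lytic LgBiT complementation luminescence. % degradation was normalized to DMSO (high control) and 2 μM of a reference BRM/BRG1 degrader (low control).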

[1] = biological target: T2, HiBit-BRG1 fusion protein (Homo sapiens, UniProt P51532); assay: HiBiT-BRG1 cell-based degradation assay (Nano-Glo HiBiT Lytic Detection, 24 h); conditions: HeLa cell line expressing HiBit-BRG1 and LgBit; for Dmax: read-out: BRG1 HiBit Degradation Maximum (%); for DC50: read-out: BRMG1 HiBit Degradation IC50
T2 construct: expressed in transfected cells
T2 sequence (P51532 whole entry, the tested form may be a part): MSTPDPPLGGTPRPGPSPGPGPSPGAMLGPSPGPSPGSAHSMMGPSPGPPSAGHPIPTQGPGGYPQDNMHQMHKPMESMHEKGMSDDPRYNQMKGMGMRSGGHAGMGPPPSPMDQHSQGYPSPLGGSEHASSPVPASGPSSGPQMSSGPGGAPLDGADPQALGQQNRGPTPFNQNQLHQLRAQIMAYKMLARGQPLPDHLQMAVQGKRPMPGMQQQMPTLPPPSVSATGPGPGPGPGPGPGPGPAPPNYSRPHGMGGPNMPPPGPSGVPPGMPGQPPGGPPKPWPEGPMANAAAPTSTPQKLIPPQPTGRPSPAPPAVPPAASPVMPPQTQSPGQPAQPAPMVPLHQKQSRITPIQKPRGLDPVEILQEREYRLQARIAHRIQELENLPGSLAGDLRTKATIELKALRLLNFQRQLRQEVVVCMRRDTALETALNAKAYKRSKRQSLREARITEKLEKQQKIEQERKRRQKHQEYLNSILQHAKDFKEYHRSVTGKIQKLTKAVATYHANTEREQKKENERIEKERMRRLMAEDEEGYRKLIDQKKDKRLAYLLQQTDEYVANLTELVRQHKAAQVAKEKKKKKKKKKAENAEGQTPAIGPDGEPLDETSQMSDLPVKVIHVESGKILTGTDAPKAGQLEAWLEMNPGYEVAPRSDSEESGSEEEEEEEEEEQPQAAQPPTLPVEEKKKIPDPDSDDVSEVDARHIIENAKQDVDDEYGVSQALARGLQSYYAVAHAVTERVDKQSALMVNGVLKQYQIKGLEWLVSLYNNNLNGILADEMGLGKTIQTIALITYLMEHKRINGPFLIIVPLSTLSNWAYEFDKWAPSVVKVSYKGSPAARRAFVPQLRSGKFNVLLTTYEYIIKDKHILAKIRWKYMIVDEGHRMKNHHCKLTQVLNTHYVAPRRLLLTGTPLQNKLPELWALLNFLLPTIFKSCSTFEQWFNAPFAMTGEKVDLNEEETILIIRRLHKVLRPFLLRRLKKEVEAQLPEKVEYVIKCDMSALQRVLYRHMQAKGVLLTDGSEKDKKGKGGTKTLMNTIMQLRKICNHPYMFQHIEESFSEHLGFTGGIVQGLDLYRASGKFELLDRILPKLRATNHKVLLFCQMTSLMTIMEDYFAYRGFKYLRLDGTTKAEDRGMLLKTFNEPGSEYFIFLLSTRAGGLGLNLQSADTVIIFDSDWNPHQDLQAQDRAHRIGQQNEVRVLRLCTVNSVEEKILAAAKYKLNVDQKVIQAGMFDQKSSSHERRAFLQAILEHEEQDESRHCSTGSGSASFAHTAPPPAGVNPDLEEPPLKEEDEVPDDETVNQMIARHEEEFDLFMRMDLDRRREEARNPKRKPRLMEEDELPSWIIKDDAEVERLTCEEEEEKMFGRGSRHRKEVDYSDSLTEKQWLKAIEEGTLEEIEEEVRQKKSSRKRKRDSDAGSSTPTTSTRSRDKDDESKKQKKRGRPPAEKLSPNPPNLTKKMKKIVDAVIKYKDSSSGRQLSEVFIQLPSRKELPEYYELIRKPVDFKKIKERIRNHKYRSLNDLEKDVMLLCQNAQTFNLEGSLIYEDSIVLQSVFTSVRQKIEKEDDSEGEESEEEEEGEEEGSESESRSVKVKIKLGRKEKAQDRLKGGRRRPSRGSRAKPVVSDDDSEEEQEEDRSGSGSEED
Summary of the method: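 Stable HeLa line co-expressing HiBit-BRG1 and LgBit, 5000 cells/well, treated 24 h in a tissue culture incubator. Lysed with Nano-Glo HiBiT lytic reagent, luminescence read. % degradation normalized to DMSO (high control) and 2 μM reference BRM/BRG1 degrader (low control).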

| Structure (SMILES) | BRM HiBit Degradation Maximum (%) (HiBit-BRM fusion protein) | Dmax [1] [%] | pIC50 (HiBit-BRM fusion protein) | BRG1 HiBit Degradation Maximum (%) [1] | DC50 (HiBit-BRM fusion protein) [nM] | DC50 [1] [nM] |
| --- | --- | --- | --- | --- | --- | --- |
| Cc1ncsc1-c1ccc(CNC(=O)[C@@H]2C[C@@H](O)CN2C(=O)[C@@H](NC(=O)CCCCCCCCCCC(=O)N2CC(c3c[nH]c4nnc(-c5ccccc5O)cc34)C2)C(C)(C)C)cc1 [Compound 46, (2S,4R)-4-hydroxy-1-((S)-2-(12-(3-(3-(2-hydroxyphenyl)-7H-pyrrolo[2,3-c]pyridazin-5-yl)azetidin-1-yl)-12-oxododecanamido)-3,3-dimethylbutanoyl)-N-(4-(4-methylthiazol-5-yl)benzyl)pyrrolidine-2-carboxamide] | C (“C” indicates maximum degradation < 50%) | < 50 | – | – | – | – |
| Cc1ncsc1-c1ccc([C@H](C)NC(=O)[C@@H]2C[C@@H](O)CN2C(=O)[C@@H](c2cc(OCCN3C[C@H]4C[C@@H](c5c(C)[nH]c6nnc(-c7ccccc7O)cc56)C[C@H]4C3)no2)C(C)C)cc1 [Compound 109, (2S,4R)-4-hydroxy-1-((R)-2-(3-(2-((3aR,5R,6aS)-5-(3-(2-hydroxyphenyl)-6-methyl-7H-pyrrolo [2,3-c]pyridazin-5-yl)hexahydrocyclopenta[c]pyrrol-2(1H)-yl)ethoxy)isoxazol-5-yl)-3-methylbutanoyl)-N-((S)-1-(4-(4-methylthiazol-5-yl)phenyl)ethyl)pyrrolidine-2-carboxamide] | A (“A” indicates maximum degradation ≥ 75%) | – | < 8.00 | C (“C” indicates maximum degradation < 50%) | – | – |
| Cc1ncsc1-c1ccc([C@H](C)NC(=O)[C@@H]2C[C@@H](O)CN2C(=O)[C@@H](c2cc(N3CCC(C(=O)N4CCc5[nH]c6nnc(-c7ccccc7O)cc6c5C4)CC3)no2)C(C)C)cc1 (racemic) [Compound 187, (2S,4R)-4-hydroxy-1-((R)-2-(3-(4-(3-(2-hydroxyphenyl)-6,7,8,9-tetrahydro-5H-pyrido[3′,4′:4,5]pyrrolo[2,3-c]pyridazine-6-carbonyl)piperidin-1-yl)isoxazol-5-yl)-3-methylbutanoyl)-N-((S)-1-(4-(4-methylthiazol-5-yl)phenyl)ethyl)pyrrolidine-2-carboxamide] | A (“A” indicates maximum degradation ≥ 75%) | < 50 | – | – | > 10 | – |
| Cc1ncsc1-c1ccc([C@H](C)NC(=O)[C@@H]2C[C@@H](O)CN2C(=O)[C@@H](c2cc(OCCN3CCN(Cc4cc5cc(-c6ccccc6O)nnc5[nH]4)CC3)no2)C(C)C)cc1 (racemic) [Compound 208, (2S,4R)-4-hydroxy-1-((R)-2-(3-(2-(4-((3-(2-hydroxyphenyl)-7H-pyrrolo[2,3-c]pyridazin-6-yl)methyl)piperazin-1-yl)ethoxy)isoxazol-5-yl)-3-methylbutanoyl)-N-((S)-1-(4-(4-methylthiazol-5-yl)phenyl)ethyl)pyrrolidine-2-carboxamide] | A (“A” indicates maximum degradation ≥ 75%) | < 50 | – | – | > 10 | – |
| Cc1ncsc1-c1ccc([C@H](C)NC(=O)[C@@H]2C[C@@H](O)CN2C(=O)[C@@H](c2cc(OCCN3CCC(c4c[nH]c5nnc(-c6ccccc6O)cc45)CC3)no2)C(C)C)cc1 (racemic) [Compound 282, (2S,4R)-4-hydroxy-1-((R)-2-(3-(2-(4-(3-(2-hydroxyphenyl)-7H-pyrrolo[2,3-c]pyridazin-5-yl)piperidin-1-yl)ethoxy)isoxazol-5-yl)-3-methylbutanoyl)-N-((S)-1-(4-(4-methylthiazol-5-yl)phenyl)ethyl)pyrrolidine-2-carboxamide] | A (“A” indicates maximum degradation ≥ 75%) | < 50 | – | – | > 10 | – |
| Cc1ncsc1-c1ccc([C@H](C)NC(=O)[C@@H]2C[C@@H](O)CN2C(=O)[C@@H](c2cc(OCCN3CC(CCCc4cc5cc(-c6ccccc6O)nnc5[nH]4)C3)no2)C(C)C)cc1 (racemic) [Compound 243, (2S,4R)-4-hydroxy-1-[(2R)-2-{3-[2-(3-{3-[3-(2-hydroxyphenyl)-7H-pyrrolo[2,3-c]pyridazin-6-yl]propyl}azetidin-1-yl)ethoxy]-1,2-oxazol-5-yl}-3-methylbutanoyl]-N-[(1S)-1-[4-(4-methyl-1,3-thiazol-5-yl)phenyl]ethyl]pyrrolidine-2-carboxamide] | A (“A” indicates maximum degradation ≥ 75%) | > 50 | – | – | > 100 | > 1000 |
| Cc1ncsc1-c1ccc([C@H](C)NC(=O)[C@@H]2C[C@@H](O)CN2C(=O)[C@@H](c2cc(OCCCN3CCN(Cc4cc5cc(-c6ccccc6O)nnc5[nH]4)CC3)no2)C(C)C)cc1 (racemic) [Compound 214, (2S,4R)-4-hydroxy-1-((R)-2-(3-(3-(4-((3-(2-hydroxyphenyl)-7H-pyrrolo[2,3-c]pyridazin-6-yl)methyl)piperazin-1-yl)propoxy)isoxazol-5-yl)-3-methylbutanoyl)-N-((S)-1-(4-(4-methylthiazol-5-yl)phenyl)ethyl)pyrrolidine-2-carboxamide] | A (“A” indicates maximum degradation ≥ 75%) | > 75 | – | – | > 100 | > 100 |
| Cc1ncsc1-c1ccc(CNC(=O)[C@@H]2C[C@@H](O)CN2C(=O)[C@@H](NC(=O)CCCCCCCC(=O)N2CC(c3c[nH]c4nnc(-c5ccccc5O)cc34)C2)C(C)(C)C)cc1 [Compound 36, (2S,4R)-4-hydroxy-1-((S)-2-(9-(3-(3-(2-hydroxyphenyl)-7H-pyrrolo[2,3-c]pyridazin-5-yl)azetidin-1-yl)-9-oxononanamido)-3,3-dimethylbutanoyl)-N-(4-(4-methylthiazol-5-yl)benzyl)pyrrolidine-2-carboxamide] | C (“C” indicates maximum degradation < 50%) | < 50 | – | – | – | – |
| Cc1ncsc1-c1ccc(CNC(=O)[C@@H]2C[C@@H](O)CN2C(=O)[C@@H](NC(=O)CCCCCCCCCC(=O)N2CC(c3c[nH]c4nnc(-c5ccccc5O)cc34)C2)C(C)(C)C)cc1 [Compound 37, (2S,4R)-4-hydroxy-1-((S)-2-(11-(3-(3-(2-hydroxyphenyl)-7H-pyrrolo[2,3-c]pyridazin-5-yl)azetidin-1-yl)-11-oxoundecanamido)-3,3-dimethylbutanoyl)-N-(4-(4-methylthiazol-5-yl)benzyl)pyrrolidine-2-carboxamide] | C (“C” indicates maximum degradation < 50%) | < 50 | – | – | – | – |
| Cc1ncsc1-c1ccc([C@H](C)NC(=O)[C@@H]2C[C@@H](O)CN2C(=O)[C@@H](c2cc(OCCN[C@@H]3CCc4[nH]c5nnc(-c6ccccc6O)cc5c4C3)no2)C(C)C)cc1 [Compound 181, (2S,4R)-4-hydroxy-1-((R)-2-(3-(2-(((R)-3-(2-hydroxyphenyl)-6,7,8,9-tetrahydro-5H-pyridazino[3,4-b]indol-6-yl)amino)ethoxy)isoxazol-5-yl)-3-methylbutanoyl)-N-((S)-1-(4-(4-methylthiazol-5-yl)phenyl)ethyl)pyrrolidine-2-carboxamide] | A (“A” indicates maximum degradation ≥ 75%) | < 50 | – | – | > 100 | – |
| Cc1ncsc1-c1ccc([C@H](C)NC(=O)[C@@H]2C[C@@H](O)CN2C(=O)[C@@H](c2cc(OCCN3CCC(O)(c4cc5cc(-c6ccccc6O)nnc5[nH]4)CC3)no2)C(C)C)cc1 (racemic) [Compound 277, (2S,4R)-4-hydroxy-1-((R)-2-(3-(2-(4-hydroxy-4-(3-(2-hydroxyphenyl)-7H-pyrrolo[2,3-c]pyridazin-6-yl)piperidin-1-yl)ethoxy)isoxazol-5-yl)-3-methylbutanoyl)-N-((S)-1-(4-(4-methylthiazol-5-yl)phenyl)ethyl)pyrrolidine-2-carboxamide] | A (“A” indicates maximum degradation ≥ 75%) | < 50 | – | – | > 100 | – |
| Cc1ncsc1-c1ccc([C@H](C)NC(=O)[C@@H]2C[C@@H](O)CN2C(=O)[C@@H](c2cc(N3CCC(N(C)[C@H]4CCc5[nH]c6nnc(-c7ccccc7O)cc6c5C4)CC3)no2)C(C)C)cc1 (racemic) [Compound 111, (2S,4R)-4-hydroxy-1-((R)-2-(3-(4-(((S)-3-(2-hydroxyphenyl)-6,7,8,9-tetrahydro-5H-pyridazino[3,4-b]indol-6-yl)(methyl)amino)piperidin-1-yl)isoxazol-5-yl)-3-methylbutanoyl)-N-((S)-1-(4-(4-methylthiazol-5-yl)phenyl)ethyl)pyrrolidine-2-carboxamide] | A (“A” indicates maximum degradation ≥ 75%) | > 50 | – | – | > 10 | > 100 |
| Cc1ncsc1-c1ccc([C@H](C)NC(=O)[C@@H]2C[C@@H](O)CN2C(=O)[C@H](c2cc(N(C)CCN3CCc4[nH]c5nnc(-c6ccccc6O)cc5c4C3)no2)C(C)C)cc1 (racemic) [Compound 149, (2S,4R)-4-hydroxy-1-((S)-2-(3-((2-(3-(2-hydroxyphenyl)-5,7,8,9-tetrahydro-6H-pyrido[3′,4′:4,5]pyrrolo[2,3-c]pyridazin-6-yl)ethyl)(methyl)amino)isoxazol-5-yl)-3-methylbutanoyl)-N-((S)-1-(4-(4-methylthiazol-5-yl)phenyl)ethyl)pyrrolidine-2-carboxamide] | C (“C” indicates maximum degradation < 50%) | < 50 | – | – | – | – |
